Measured values reported in patent publication US9498438B2 (The University of Liverpool, priority 2011, dated 2016).

Legend:
Assay type in all cases: cell-based
[1] = ATP cell viability assay (CellTiter-Glo) cytotoxicity; details: human
Description: HepG2 (hepatic) and Caco-2 (intestinal) cells were purchased from American Type Tissue Culture (ATCC; USA) and maintained in Dulbecco's modified eagle's medium (DMEM; Sigma; Dorest, Uk) supplemented with 10% fetal bovine serum (FBS; Bio-Whittaker, Berkshire, Uk) for HepG2 and 15% FBS for Caco-2. CEM (lymphocyte) and THP-1 (monocyte) cells were purchased from European Collection of Cell Culture (ECACC; Porton Down, Uk) and grown in RPMI-1640 (Sigma; Dorest, Uk) supplemented with 10% FBS. All cell lines were incubated at 37° C. and 5% CO2 and for adherent cells (HepG2 and Caco-2) were routinely sub-cultured every 4 days when 95% confluent. Suspension cells (CEM and THP-1) were routinely sub-cultured when a density of 1×10^6 cells/ml was achieved. Cell count and viability was determined by Trypan Blue exclusion assay.
HepG2, Caco-2, THP-1, CEM and A-THP-1 cells were separately seeded at a density of 2.5×10^4/100 μl in their appropriate media into each well of a 96 well plate (Nunclon™, Denmark) and incubated for 24 hours at 37° C. and 5% CO2. […]
Prior to starting viability assays, all reagents were made fresh and in accordance to manufacturer's instructions and allowed to equilibrate to room temperature immediately before use. […] Luminescence was then measured using a Tecan Genios plate reader (Tecan; Austria).

HIVIIIB in MT4 cells = assay: Inhibition of cultured HIV-IIIB in MT4 cells (MTT assay); details: Human immunodeficiency virus 1, 120 h, 70% loaded, 5 days, read-out: IC50 (nM), Table 11
Experimental: HIVIIIB and the human T-cell line, MT4, were supplied by the National Institute for Biological Standards and Control (NIBSC), the Centre for AIDS Reagents (CFAR: Hertfordshire, Uk). MT4 cells were grown and routinely maintained in RPMI-1640 (Sigma; Dorest, Uk) supplemented with 10% fetal bovine serum (FBS; Bio-Whittaker, Berkshire, Uk) at 37° C. and 5% CO2 and sub-cultured every 3 days. Cell counts and viability was determined by Trypan Blue exclusion using a disposable plastic haemocytometer (Labtech International Ltd, UK). HIVIIIB was propagated by passage through MT4 cells in RPMI-1640 and 10% FBS for 12 days and a subsequent multiplicity of infection (MOI) was determined by MTT assay.
MT4 cells were dispensed into 50 ml falcon tubes and centrifuged at 2000 rpm and 4° C. for 5 minutes. The supernatant was aspirated and the resulting pellet resuspended to a cell density of 1×10^5/ml in RPMI 1640 supplemented with 10% FBS and 1 ml of viral isolate (M.O.I 0.001). After further centrifugation for 5 minutes at 2000 rpm, the MT4/HIVIIIB pellet was incubated at 37° C. and 5% CO2 for 2 hours. […]
Following incubation for 5 days of MT4/HIVIIIB with nano formulated EFV at 37° C. and 5% CO2. […] Absorbance was read at 570 nm on a plate reader (Tecan Magellan, Austria).

[2] = ATP cell viability assay (CellTiter-Glo) cytotoxicity; details: human, THP-1 (monocyte) cells
Experimental: (§1) The same procedure was followed for each individual excipient (23 samples) with concentrations range of 1 μM to 1 M.
(§2) Prior to starting viability assays, all reagents were made fresh and in accordance to manufacturer's instructions and allowed to equilibrate to room temperature immediately before use. After 24 hours incubation, 96 well plates were removed from the incubator and the plate and its contents allowed too equilibrate to room temperature for approximately 30 minutes. After 30 minutes, 80 μl of media was aspirated from each individual well and 20 μl CellTiter-Glo® Reagent (Promega, UK) was added to the remaining media and cells. The contents were then mixed for 2 minutes on an orbital shaker to induce cell lysis. The plate was then further incubated at room temperature for 10 minutes to stabilise luminescent signal. Luminescence was then measured using a Tecan Genios plate reader (Tecan; Austria).

[3] = as above; details: human, A-THP-1 (PMA-activated THP-1, macrophage like) cells
Experimental: Cells were then incubated at 37° C. and 5% CO2 for 7 days prior to use to allow differentiation from monocyte to macrophage like cells.
as §1, §2

## O=C1Nc2ccc(Cl)cc2[C@@](C#CC2CC2)(C(F)(F)F)O1 [Aqueous solution, efavirenz]
[1]; CEM (lymphocyte) cells
  IC50 at 24 h: 40 µM
[1]; HepG2 (hepatic) cells
  IC50 at 24 h: 33 µM
HIVIIIB in MT4 cells
  IC50: 71 nM
[2]
  IC50 at 24 h: 29 µM
[3]
  IC50 at 24 h: 29 µM
